Like-named read-outs stand apart in the source and are kept apart here. No end group written: not given here. Some results are limits rather than exact numbers.

In one test the target is T1, HLA-A*02:06 molecule (Homo sapiens, UniProt P04439, D140Y/D185E/D98H/E176V/E277Q/F33Y/G131W/G231S/I119V/I121R/I166T/I218V/L300P/L318F/N151K/N90K/P208A/P217A/Q86G/Q94H/R138H/R169H/T345S).
T1 construct: expressed in transfected cells; host or cells: RA2.6 cells (mouse TAP-deficient RMAS with HLA-A*02:06 cDNA)
Briefly: Binding of peptide to HLA-A*02:06 molecule using RA2.6 cells. The procedure: Measurement of binding ability of a peptide to an HLA-A*02:06 molecule, which is a product of an HLA-A*02:06 gene, was performed using RA2.6 cells (a cell line newly created at Kochi University) obtained by introducing cDNA of the HLA-A*02:06 gene into RMAS, which is a mouse transporter associated with antigen processing (TAP)-deficient cell line.
A fluorescently labeled monoclonal antibody BB7.2 that specifically recognizes a peptide binding type HLA-A*02:06 molecule was added thereto, and the mixture was incubated on ice for 20 minutes to stain the cells.

For the next test, the target named is T2, HLA-A*02:01 molecule (Homo sapiens, UniProt P04439, D140Y/D185E/D98H/E176V/E277Q/G131W/G231S/I119V/I121R/I166T/I218V/L300P/L318F/N151K/N90K/P208A/P217A/Q86G/Q94H/R138H/R169H/T345S).
T2 construct: using a cell line T2 (purchased from ATCC) expressing an HLA-A*02:01 molecule; host or cells: T2 cell line
Description: Binding of peptide to HLA-A*02:01 molecule using cell line T2. The procedure:
Measurement of binding ability of a peptide to an HLA-A*02:01 molecule, which is a product of an HLA-A*02:01 gene, was performed using a cell line T2 (purchased from ATCC) expressing an HLA-A*02:01 molecule.
T2 cells and purified β2m were added to a serial dilution series of a peptide whose binding ability was to be measured, and then the mixture was incubated at 37° C. for four hours. HLA-A*02:01 molecules whose expression level increased in a peptide concentration-dependent manner by this time point were stained using an association-type specific fluorescently labeled monoclonal antibody BB7.2.
Thereafter, the amount of fluorescence per cell was measured with a flow cytometer, and a dissociation constant Kd value was calculated by the method disclosed in the article (Udaka et al., Immunogenetics, 51, 816-828, 2000) by the present inventor.

For the next test, the target named is HLA-A*24:02 molecule (Homo sapiens, UniProt P04439, D101N/D140Y/D185E/E176V/E190D/F33S/G103R/G107R/I119L/I121M/I306V/K335N/L105A/L180Q/L300P/N151K/N90K/Q86E/Q94H/R106L/R138H/R89G/T104I/T345S/V100E/W191G/Y123F). Briefly: Binding of peptide to HLA-A*24:02 molecule using C1R-A24 cells. The procedure:
Measurement of binding ability of a peptide to an HLA-A*24:02 molecule, which is a product of an HLA-A*24:02 gene, was performed using C1R-A24 cells expressing an HLA-A*24:02 molecule (Cells created by Professor Masafumi Takiguchi, Kumamoto University, was provided by Assistant Professor Masaki Yasukawa, Ehime University, with permission).
First, the C1R-A24 cells were exposed to acidic conditions at pH 3.3 for 30 seconds to dissociate and remove an endogenous peptide originally binding to an HLA-A*24:02 molecule and light chain β2m commonly associated with an HLA class I molecule. After neutralization, purified β2m was added to the C1R-A24 cells, and the mixture was added to a peptide dilution series and incubated on ice for four hours.
Thereafter, the number of MHC-peps for each C1R-A24 cell (proportional to a fluorescence intensity of the fluorescent antibody) was quantitatively measured using a fluorescence cell analyzer FACScan (Becton-Dickinson).

Setting [1] is: Table 2, dissociation constant Kd value (−log Kd value), >−3.0 = no significant binding ability, read-out: Measured value of allele A*02:06 (converted).
[2] abbreviates: Table 2, dissociation constant Kd value (−log Kd value), >−3.0 = no significant binding ability, read-out: Measured value of allele A*02:01 (converted).
The mark [3] stands for this setting: Table 2, dissociation constant Kd value (−log Kd value), >−3.0 = no significant binding ability, read-out: Measured value of allele A*24:02 (converted).
Setting [4] is: Measured value of allele A*24:02, Table 2, dissociation constant Kd value (−log Kd value), >−3.0 = no significant binding ability.
Where [5] appears, read: Table 4, Kd value (−log Kd value), smaller than −3 = binding property, read-out: Measured value of allele A*24:02 (converted).

Turning to ALAPPTAQL [compound 6], the Kd at HLA-A*02:06 molecule (setting [1]) was 0.392 µM; at HLA-A*02:01 molecule (setting [2]) it was 0.265 µM; on HLA-A*24:02 molecule (setting [3]) it was 4.69 µM.

Take ALLAPAVLL [compound 7]: the Kd on HLA-A*02:06 molecule (setting [1]) was 1.43 µM; on HLA-A*02:01 molecule (setting [2]) it was 0.216 µM; on HLA-A*24:02 molecule (setting [3]) it was 1.09 µM.

For the sequence ALPAPHLTL [compound 18], the Kd at HLA-A*02:06 molecule was 3.03 µM; on HLA-A*02:01 molecule it was 1.02 µM; on HLA-A*24:02 molecule (setting [4]), 0.185 µM.

Take ALPKIRARV [compound 12]: the Kd is 16.6 µM at HLA-A*02:06 molecule (setting [1]), 2.19 µM at HLA-A*02:01 molecule (setting [2]) and 0.66 µM at HLA-A*24:02 molecule (setting [3]).

As to ALQFLIPRL [compound 22], the Kd was 1.45 µM at HLA-A*02:06 molecule, 1.26 µM on HLA-A*02:01 molecule and 10.9 µM on HLA-A*24:02 molecule (setting [4]).

With ALQPPCPNL [compound 31], the figures for the Kd on HLA-A*02:06 molecule, at HLA-A*02:01 molecule and on HLA-A*24:02 molecule (setting [4]) were 23.1 µM, 7.44 µM and 4.94 µM, respectively.

On to ALRPAPALL [compound 26], for which, on HLA-A*02:06 molecule (Table 2, dissociation constant Kd value (−log Kd value), >−3.0 = no significant binding ability), the “Measured value of allele A*02:06” value is listed as over −3.37. Also, the Kd at HLA-A*02:06 molecule (setting [1]) is over 427 µM; at HLA-A*02:01 molecule (setting [2]) it was 0.774 µM; at HLA-A*24:02 molecule (setting [3]) it was 0.397 µM.

Turning to AQAPPTAQL [compound 5], the Kd at HLA-A*02:06 molecule was 1.42 µM; at HLA-A*02:01 molecule, 0.961 µM; at HLA-A*24:02 molecule (setting [4]) it was 1.77 µM.

For the sequence AQISAYRTC [compound 50], the Kd at HLA-A*02:06 molecule (setting [1]) is 82.1 µM; on HLA-A*02:01 molecule (setting [2]), over 1000 µM; at HLA-A*24:02 molecule (setting [3]), over 1000 µM; at HLA-A*24:02 molecule (setting [5]), over 1000 µM.

Regarding ARHSTIPLV [compound 77], the Kd on HLA-A*02:06 molecule (setting [1]), at HLA-A*02:01 molecule (setting [2]), on HLA-A*24:02 molecule (setting [3]) and on HLA-A*24:02 molecule (setting [5]) was over 1000 µM each time.

Take ATAPPTAQL [compound 25]: the Kd on HLA-A*02:06 molecule (setting [1]) is 0.684 µM; on HLA-A*02:01 molecule (setting [2]) it was 10.1 µM; on HLA-A*24:02 molecule (setting [3]) it was 29.2 µM.

Take ATGDCSSFI [compound 59]: the Kd at HLA-A*02:06 molecule (setting [1]) is over 1000 µM; on HLA-A*02:01 molecule (setting [2]), 83.1 µM; at HLA-A*24:02 molecule (setting [3]), over 1000 µM; at HLA-A*24:02 molecule (setting [5]) it was over 1000 µM. Also, at HLA-A*02:06 molecule (Table 4, Kd value (−log Kd value), smaller than −3 = binding property), the “Measured value of allele A*02:06” value is given as over −3.

For the sequence AYRTCWIFS [compound 49], the values for the Kd at HLA-A*02:06 molecule (setting [1]), at HLA-A*02:01 molecule (setting [2]) and on HLA-A*24:02 molecule (setting [3]) were over 1000 µM, over 1000 µM and 3.82 µM, respectively.

CDLSSFEFF [compound 58]: the Kd at HLA-A*02:06 molecule (setting [1]) is over 1000 µM; on HLA-A*02:01 molecule (setting [2]) it was over 1000 µM; on HLA-A*24:02 molecule (setting [3]), 80.3 µM.

For CIDEHQWQL [compound 28], the figures for the Kd on HLA-A*02:06 molecule (setting [1]), at HLA-A*02:01 molecule (setting [2]) and at HLA-A*24:02 molecule (setting [3]) were 5.62 µM, 14 µM and 332 µM, respectively.

Consider CLDEHQWQL [compound 9], for which the Kd on HLA-A*02:06 molecule (setting [1]) was 0.474 µM; on HLA-A*02:01 molecule (setting [2]), 0.216 µM; at HLA-A*24:02 molecule (setting [3]), 1.36 µM.

Turning to CMIVHQGTI [compound 36], the Kd was 42.4 µM at HLA-A*02:06 molecule (setting [1]), over 1000 µM on HLA-A*02:01 molecule (setting [2]) and 2.91 µM on HLA-A*24:02 molecule (setting [3]).

As to CTDEHQWQL [compound 39], the Kd at HLA-A*02:06 molecule (setting [1]) is 0.16 µM; on HLA-A*02:01 molecule (setting [2]) it was 9.07 µM; at HLA-A*24:02 molecule (setting [3]) it was over 1000 µM; on HLA-A*24:02 molecule (setting [5]) it was over 1000 µM.

For EAIDGYITL [compound 47], the Kd is 18.9 µM at HLA-A*02:06 molecule (setting [1]), over 1000 µM at HLA-A*02:01 molecule (setting [2]) and 2.91 µM on HLA-A*24:02 molecule (setting [3]).

As for ETLQFIDSM [compound 53], the Kd on HLA-A*02:06 molecule (setting [1]) was 426 µM; on HLA-A*02:01 molecule (setting [2]), over 1000 µM; at HLA-A*24:02 molecule (setting [3]) it was over 1000 µM; on HLA-A*24:02 molecule (setting [5]), over 1000 µM.

As for FIDSDSSSW [compound 57], the results for the Kd at HLA-A*02:06 molecule (setting [1]), on HLA-A*02:01 molecule (setting [2]) and on HLA-A*24:02 molecule (setting [3]) were over 1000 µM, over 1000 µM and 19.9 µM, respectively.

FSNDFGQSL [compound 35]: the Kd on HLA-A*02:06 molecule (setting [1]) is 19.3 µM; on HLA-A*02:01 molecule (setting [2]), 126 µM; on HLA-A*24:02 molecule (setting [3]), over 1000 µM; on HLA-A*24:02 molecule (setting [5]), over 1000 µM.

The values above are taken from patent US20250236642A1, “PHARMACEUTICAL COMPOSITION FOR TREATMENT OR PREVENTION OF ADULT T-CELL LEUKEMIA” (NEC Corporation, priority 2022, published 2025).
